Where “and” joins values, the source holds several entries; their conditions need not be identical. Identical values can stand only once.
Experiments:
[1] = biological target: T1, hCXCR2 (Homo sapiens, UniProt P25025); experiment: CXCR2 SPA Assay ([125I]-IL-8 receptor binding); conditions: hCXCR2-CHO overexpressing membranes, [125I]-IL-8 0.1 nM
T1 construct: purchased Biosignal; host or cells: CHO cells (membranes)
T1 sequence (P25025 1-360): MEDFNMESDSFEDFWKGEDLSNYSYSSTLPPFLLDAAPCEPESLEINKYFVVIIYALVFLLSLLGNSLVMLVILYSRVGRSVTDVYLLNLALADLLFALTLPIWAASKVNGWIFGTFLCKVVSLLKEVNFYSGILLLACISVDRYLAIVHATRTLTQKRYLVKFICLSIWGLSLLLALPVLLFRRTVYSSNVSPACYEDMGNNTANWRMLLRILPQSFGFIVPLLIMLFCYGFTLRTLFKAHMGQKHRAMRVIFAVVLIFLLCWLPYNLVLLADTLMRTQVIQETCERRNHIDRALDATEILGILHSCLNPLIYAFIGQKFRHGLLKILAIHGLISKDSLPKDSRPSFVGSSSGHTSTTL
Protocol: For each well of a 96 well plate, a reaction mixture of 2.5 μg hCXCR2-CHO overexpressing membranes (Biosignal) and 200 μg/well WGA-SPA beads (Amersham) in 160 μl was prepared in CXCR2 assay buffer (25 mM HEPES, pH 7.4, 2 mM CaCl2, 1 mM MgCl2). A 1 nM stock of ligand, [125I]-IL-8 (NEN), was prepared in the CXCR2 assay buffer. 10× stock solutions of test compounds were prepared in DMSO (Sigma). The above solutions were added to a 96-well assay plate (PerkinElmer or Corning) as follows: 20 μl test compound or DMSO, 160 μl of reaction mixture, 20 μl of ligand stock (Final [Ligand]=0.1 nM). The assay plates were shaken for 5 minutes on a plate shaker, then incubated for 12 hours before cpm/well were determined in Microbeta Trilux counter (PerkinElmer).

[2] = biological target: T2, hCXCR1 (Homo sapiens, UniProt P25024); experiment: CXCR1 SPA Assay ([125I]-IL-8 receptor binding); conditions: hCXCR1-CHO overexpressing membranes, [125I]-IL-8 0.05 nM
T2 construct: purchased Biosignal; host or cells: CHO cells (membranes)
T2 sequence (P25024 1-350): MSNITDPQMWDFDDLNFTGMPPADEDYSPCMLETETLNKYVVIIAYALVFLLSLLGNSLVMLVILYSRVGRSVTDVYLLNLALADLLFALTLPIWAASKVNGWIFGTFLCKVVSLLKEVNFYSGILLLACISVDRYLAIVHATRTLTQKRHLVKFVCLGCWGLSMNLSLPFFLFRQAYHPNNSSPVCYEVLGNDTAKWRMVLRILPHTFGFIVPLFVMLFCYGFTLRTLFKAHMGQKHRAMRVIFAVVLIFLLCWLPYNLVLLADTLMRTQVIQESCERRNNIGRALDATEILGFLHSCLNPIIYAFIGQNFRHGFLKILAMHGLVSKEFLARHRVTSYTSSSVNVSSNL
Protocol: For each well of a 96 well plate, a reaction mixture of 2.2 μg hCXCR1-CHO overexpressing membranes (Biosignal) and 100 μg/well WGA-SPA beads (Amersham) in 160 μl was prepared in CXCR1 assay buffer (25 mM HEPES, pH 7.8, 2 mM CaCl2, 1 mM MgCl2, 125 mM NaCl, 0.1% BSA) (Sigma). A 0.5 nM stock of ligand, [125I]-IL-8 (NEN) was prepared in the CXCR1 assay buffer. 10× stock solutions of test compounds were prepared in 10% DMSO (Sigma). The above solutions were added to a 96-well assay plate (PerkinElmer) as follows: 20 μl test compound or DMSO, 160 μl of reaction mixture, 20 μl of ligand stock (Final [Ligand]=0.05 nM). The assay plates were shaken for 5 minutes on plate shaker, then incubated for 12 hours before cpm/well were determined in Microbeta Trilux counter (PerkinElmer). % Inhibition of Total binding-NSB (250 nM IL-8) was determined for IC50 values.

Ki [1]	Ki [2]	melting point [°C]	Structure (SMILES)
5 to 91 nM			CCN(C)S(=O)(=O)c1scc(NC(=O)Nc2cccc(Cl)c2Cl)c1O [Example 21]
5 to 91 nM and 5 to 10 nM	652 to 1920 nM		CNS(=O)(=O)c1scc(NC(=O)Nc2cccc(Cl)c2Cl)c1O [Example 21.14]
5 to 91 nM			CC(C)NS(=O)(=O)c1scc(NC(=O)Nc2ccccc2Br)c1O [Example 20.12]
5 to 91 nM	652 to 1920 nM		O=C(Nc1ccccc1Br)Nc1csc(S(=O)(=O)N2CCCC2)c1O [Example 20.19]
	652 to 1920 nM		CC(C)NS(=O)(=O)c1scc(NC(=O)Nc2cccc(Cl)c2Cl)c1O [Example 20.11]
5 to 91 nM			CN(C)S(=O)(=O)c1scc(NC(=O)Nc2cccc(Cl)c2Cl)c1O [Example 20]
5 to 91 nM and 5 to 10 nM			CCCN(C)S(=O)(=O)c1scc(NC(=O)Nc2cccc(Cl)c2Cl)c1O [Example 21.1]
5 to 91 nM	652 to 1920 nM		O=C(Nc1csc(S(=O)(=O)NC2CC2)c1O)Nc1cccc(Cl)c1Cl [Example 21.10]
5 to 91 nM and 5 to 10 nM			CC(C)N(C)S(=O)(=O)c1scc(NC(=O)Nc2cccc(Cl)c2Cl)c1O [Example 21.4]
5 to 91 nM and 5 to 10 nM	652 to 1920 nM		O=C(Nc1csc(S(=O)(=O)N2CCC[C@H]2CO)c1O)Nc1cccc(Cl)c1Cl [Example 21.7]
5 to 91 nM			CN(C1CCC1)S(=O)(=O)c1scc(NC(=O)Nc2cccc(Cl)c2Cl)c1O [Example 20.17]
5 to 91 nM		112 to 115	CCN(C)S(=O)(=O)c1scc(NC(=S)Nc2cccc(Cl)c2Cl)c1O [Example 22]
5 to 91 nM			CCCCN(C)S(=O)(=O)c1scc(NC(=O)Nc2cccc(Cl)c2Cl)c1O [Example 21.2]
5 to 91 nM			CCNS(=O)(=O)c1scc(NC(=O)Nc2ccccc2Br)c1O [Example 20.10]
5 to 91 nM and 5 to 10 nM	652 to 1920 nM		O=C(Nc1csc(S(=O)(=O)N2CCC[C@@H]2CO)c1O)Nc1cccc(Cl)c1Cl [Example 21.6]
5 to 91 nM	652 to 1920 nM		CCN1CCN(S(=O)(=O)c2scc(NC(=O)Nc3cccc(Cl)c3Cl)c2O)CC1 [Example 21.5]
5 to 91 nM			CN(C)S(=O)(=O)c1scc(NC(=O)Nc2ccccc2Br)c1O [Example 20.1]
5 to 91 nM	652 to 1920 nM		O=C(Nc1csc(S(=O)(=O)N2CCCC2)c1O)Nc1cccc(Cl)c1Cl [Example 20.18]
5 to 91 nM			CC(C)CN(C)S(=O)(=O)c1scc(NC(=O)Nc2cccc(Cl)c2Cl)c1O [Example 21.3]
5 to 91 nM			O=C(Nc1csc(S(=O)(=O)NC2(CO)CCCC2)c1O)Nc1cccc(Cl)c1Cl [Example 21.8]
5 to 91 nM	652 to 1920 nM		CCN(C(C)(C)C)S(=O)(=O)c1scc(NC(=O)Nc2cccc(Cl)c2Cl)c1O [Example 20.15]
5 to 91 nM			CC(C)[C@@H](CO)NS(=O)(=O)c1scc(NC(=O)Nc2cccc(Cl)c2Cl)c1O [Example 21.12]
5 to 91 nM and 5 to 10 nM and 6 nM	652 to 1920 nM		CN(C1CC1)S(=O)(=O)c1scc(NC(=O)Nc2cccc(Cl)c2Cl)c1O [Example 20.16]
	652 to 1920 nM		CC(C)(C)NS(=O)(=O)c1scc(NC(=O)Nc2cccc(Cl)c2Cl)c1O [Example 20.13]
5 to 91 nM	652 to 1920 nM		CCN(CC)S(=O)(=O)c1scc(NC(=O)Nc2cccc(Cl)c2Cl)c1O [Example 20.3]
5 to 91 nM			NS(=O)(=O)c1scc(NC(=O)Nc2cccc(Cl)c2Cl)c1O [Example 20.21]
	652 to 1920 nM and 652 nM		CN(C(C)(C)C)S(=O)(=O)c1scc(NC(=O)Nc2cccc(Cl)c2Cl)c1O [Example 20.14]
5 to 91 nM			CCNS(=O)(=O)c1scc(NC(=O)Nc2cccc(Cl)c2Cl)c1O [Example 20.7]
